According to ChEMBL document CHEMBL5303573, “Mapping human microbiome drug metabolism by gut bacteria and their genes” (Nature, 2019):

Experiments:
Format in all cases: ADME
Set-up in all cases: dose 2 uM
Conditions in all cases: 2 µM
Acylhydrolase = target: T1, Acylhydrolase (Bacteroides thetaiotaomicron, UniProt Q8AA96); assay: (§1) The drug is tested on Bacteroides thetaiotaomicron strain: VPI-5482 for biotransformation. The drug concentrations were measured before and after a 12-h incubation by liquid-chromatography-coupled mass spectrometry (LC–MS)
T1 sequence (Q8AA96 whole entry): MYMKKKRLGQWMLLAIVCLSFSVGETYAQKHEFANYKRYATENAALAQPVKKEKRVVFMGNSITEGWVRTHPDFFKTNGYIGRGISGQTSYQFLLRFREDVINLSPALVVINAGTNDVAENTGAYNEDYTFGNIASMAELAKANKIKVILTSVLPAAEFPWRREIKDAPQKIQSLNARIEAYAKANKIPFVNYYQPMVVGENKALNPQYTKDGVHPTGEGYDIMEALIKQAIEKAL

[1] = target: T2, Sialic acid-specific 9-O-acetylesterase (Bacteroides thetaiotaomicron, UniProt Q8A0D0); assay: as §1
T2 sequence (Q8A0D0 whole entry): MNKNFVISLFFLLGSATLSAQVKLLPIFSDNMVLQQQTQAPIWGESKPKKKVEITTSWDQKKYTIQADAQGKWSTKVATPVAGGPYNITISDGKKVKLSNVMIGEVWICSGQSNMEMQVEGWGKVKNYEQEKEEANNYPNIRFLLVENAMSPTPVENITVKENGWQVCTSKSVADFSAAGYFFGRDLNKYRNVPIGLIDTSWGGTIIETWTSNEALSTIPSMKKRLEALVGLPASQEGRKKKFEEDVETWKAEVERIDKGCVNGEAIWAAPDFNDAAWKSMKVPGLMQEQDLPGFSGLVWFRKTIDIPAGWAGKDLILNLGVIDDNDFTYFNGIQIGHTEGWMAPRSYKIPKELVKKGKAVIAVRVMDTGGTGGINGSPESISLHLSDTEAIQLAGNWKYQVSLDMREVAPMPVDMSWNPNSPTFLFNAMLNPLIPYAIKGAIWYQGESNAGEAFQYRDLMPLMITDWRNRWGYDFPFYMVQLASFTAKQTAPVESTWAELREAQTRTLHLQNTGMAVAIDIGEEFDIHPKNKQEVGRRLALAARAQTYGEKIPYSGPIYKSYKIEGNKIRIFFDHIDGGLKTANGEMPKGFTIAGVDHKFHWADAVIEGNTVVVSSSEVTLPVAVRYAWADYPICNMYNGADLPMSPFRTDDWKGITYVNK

Acyltransferase = target: T3, Acyltransferase (Bacteroides thetaiotaomicron, UniProt Q8A575); assay: as §1
T3 sequence (Q8A575 whole entry): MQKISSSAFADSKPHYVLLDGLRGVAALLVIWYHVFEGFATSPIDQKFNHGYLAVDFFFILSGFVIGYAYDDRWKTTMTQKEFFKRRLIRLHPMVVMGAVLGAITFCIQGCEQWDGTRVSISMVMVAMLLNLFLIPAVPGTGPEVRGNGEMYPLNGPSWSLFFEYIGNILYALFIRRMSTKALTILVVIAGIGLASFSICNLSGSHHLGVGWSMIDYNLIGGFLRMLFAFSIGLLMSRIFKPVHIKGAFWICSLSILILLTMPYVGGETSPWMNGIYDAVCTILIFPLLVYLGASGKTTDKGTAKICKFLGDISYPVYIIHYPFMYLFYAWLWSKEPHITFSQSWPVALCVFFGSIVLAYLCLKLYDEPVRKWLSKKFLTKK

Lipoprotein = target: T4, Lipoprotein (Bacteroides thetaiotaomicron, UniProt Q8A343); assay: as §1
T4 sequence (Q8A343 whole entry): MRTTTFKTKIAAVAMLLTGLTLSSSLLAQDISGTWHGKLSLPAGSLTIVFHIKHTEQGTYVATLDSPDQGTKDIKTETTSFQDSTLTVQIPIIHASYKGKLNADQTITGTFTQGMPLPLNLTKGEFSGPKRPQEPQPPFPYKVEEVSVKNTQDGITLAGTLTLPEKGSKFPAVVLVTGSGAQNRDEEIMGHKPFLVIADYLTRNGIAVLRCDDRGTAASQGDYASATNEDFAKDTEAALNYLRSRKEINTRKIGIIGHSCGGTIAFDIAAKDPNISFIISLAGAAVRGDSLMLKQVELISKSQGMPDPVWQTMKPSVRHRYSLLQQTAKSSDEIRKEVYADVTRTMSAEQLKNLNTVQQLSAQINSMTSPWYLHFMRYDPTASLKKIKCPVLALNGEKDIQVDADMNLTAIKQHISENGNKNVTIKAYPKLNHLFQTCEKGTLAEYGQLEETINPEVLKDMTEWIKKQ

Endoglucanase E (EGE) = target: T5, Endoglucanase E (EGE) (Bacteroides thetaiotaomicron, UniProt Q8AAL9); assay: as §1
T5 sequence (Q8AAL9 whole entry): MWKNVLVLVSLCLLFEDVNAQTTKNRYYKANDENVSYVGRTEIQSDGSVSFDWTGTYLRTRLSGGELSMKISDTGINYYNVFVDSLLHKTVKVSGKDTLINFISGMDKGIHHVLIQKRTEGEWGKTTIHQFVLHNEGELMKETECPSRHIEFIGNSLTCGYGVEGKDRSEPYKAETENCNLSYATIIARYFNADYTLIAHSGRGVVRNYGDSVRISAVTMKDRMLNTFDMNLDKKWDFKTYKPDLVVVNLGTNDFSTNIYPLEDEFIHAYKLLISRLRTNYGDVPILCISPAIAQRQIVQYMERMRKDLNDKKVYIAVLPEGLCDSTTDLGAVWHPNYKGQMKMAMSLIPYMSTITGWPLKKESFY

[2] = target: T6, 3-oxo-5-alpha-steroid 4-dehydrogenase (Bacteroides thetaiotaomicron, UniProt Q8A618); assay: as §1
T6 sequence (Q8A618 whole entry): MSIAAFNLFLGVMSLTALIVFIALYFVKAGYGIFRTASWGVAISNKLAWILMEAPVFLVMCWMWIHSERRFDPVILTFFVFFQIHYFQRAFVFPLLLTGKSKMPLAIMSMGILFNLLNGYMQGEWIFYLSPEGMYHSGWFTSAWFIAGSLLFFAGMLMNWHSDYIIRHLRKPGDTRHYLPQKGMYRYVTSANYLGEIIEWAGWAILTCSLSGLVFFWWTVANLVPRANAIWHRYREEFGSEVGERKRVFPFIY

[3] = target: T7, Lipolytic enzyme, G-D-S-L family (Bacteroides thetaiotaomicron, UniProt Q8A0C5); assay: as §1
T7 sequence (Q8A0C5 whole entry): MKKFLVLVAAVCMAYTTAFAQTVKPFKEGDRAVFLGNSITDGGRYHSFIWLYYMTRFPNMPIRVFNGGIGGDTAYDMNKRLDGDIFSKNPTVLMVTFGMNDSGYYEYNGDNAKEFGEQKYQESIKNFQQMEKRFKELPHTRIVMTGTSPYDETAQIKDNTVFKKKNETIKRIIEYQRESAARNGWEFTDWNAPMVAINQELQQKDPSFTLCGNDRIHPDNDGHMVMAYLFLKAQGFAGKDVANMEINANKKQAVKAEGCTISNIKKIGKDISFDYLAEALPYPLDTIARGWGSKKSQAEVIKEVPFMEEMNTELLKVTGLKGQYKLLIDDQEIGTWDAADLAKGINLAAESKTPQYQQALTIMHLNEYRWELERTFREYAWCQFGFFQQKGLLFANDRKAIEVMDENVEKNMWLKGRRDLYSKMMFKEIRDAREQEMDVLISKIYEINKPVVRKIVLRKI

General stress protein = General stress protein (Bacteroides thetaiotaomicron, UniProt Q8A7U5); assay: as §1
General stress protein, sequence (Q8A7U5 1-138, change not shown): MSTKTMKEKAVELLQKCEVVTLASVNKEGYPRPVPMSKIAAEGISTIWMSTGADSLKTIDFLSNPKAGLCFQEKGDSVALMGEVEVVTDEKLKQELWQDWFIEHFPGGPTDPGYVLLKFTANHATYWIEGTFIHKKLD

Structure (SMILES)	Bacterial Biotransformation (Acylhydrolase)	Bacterial Biotransformation [1]	Bacterial Biotransformation (Acyltransferase)	Bacterial Biotransformation (Lipoprotein)	Bacterial Biotransformation (Endoglucanase E (EGE))	Bacterial Biotransformation [2]	Bacterial Biotransformation [3]	Bacterial Biotransformation (General stress protein)
CCS(=O)(=O)CCn1c([N+](=O)[O-])cnc1C [TINIDAZOLE]	Compound NOT metabolized	Compound NOT metabolized	Compound NOT metabolized	Compound NOT metabolized	Compound NOT metabolized	Compound NOT metabolized	Compound NOT metabolized	Compound NOT metabolized
C[C@@H]1CC[C@H]2[C@@H](C)C(=O)O[C@@H]3O[C@@]4(C)CC[C@@H]1[C@]32OO4 [ARTEMISININ]	Compound NOT metabolized	Compound NOT metabolized	Compound NOT metabolized	Compound NOT metabolized	Compound NOT metabolized	Compound NOT metabolized	Compound NOT metabolized	Compound metabolized
CC(=O)OCC(=O)NCCCOc1cccc(CN2CCCCC2)c1 [ROXATIDINE ACETATE]	Compound metabolized	Compound NOT metabolized	Compound NOT metabolized	Compound NOT metabolized	Compound NOT metabolized	Compound NOT metabolized	Compound metabolized	Compound NOT metabolized
Nc1ccc(/N=N/c2ccccc2)c(N)n1 [PHENAZOPYRIDINE]	Compound NOT metabolized	Compound NOT metabolized	Compound NOT metabolized	Compound NOT metabolized	Compound NOT metabolized	Compound NOT metabolized	Compound NOT metabolized	Compound metabolized
